Results reported in BindingDB's records for doi:10.1021/jm7012858 (Wyeth Research, 2008).

Biological target: Phosphatidylinositol 3-kinase regulatory subunit alpha/4,5-bisphosphate 3-kinase catalytic subunit alpha isoform (Homo sapiens, UniProt P42336)
Experiment: PI3K Inhibition Assay
Description: Inhibition of PI3K enzyme activity is measured in a microtiter plate-based fluorescence polarization (FP) assay.

Sequence of Phosphatidylinositol 3-kinase regulatory subunit alpha/4,5-bisphosphate 3-kinase catalytic subunit alpha isoform (P27986 whole entry, canonical isoform): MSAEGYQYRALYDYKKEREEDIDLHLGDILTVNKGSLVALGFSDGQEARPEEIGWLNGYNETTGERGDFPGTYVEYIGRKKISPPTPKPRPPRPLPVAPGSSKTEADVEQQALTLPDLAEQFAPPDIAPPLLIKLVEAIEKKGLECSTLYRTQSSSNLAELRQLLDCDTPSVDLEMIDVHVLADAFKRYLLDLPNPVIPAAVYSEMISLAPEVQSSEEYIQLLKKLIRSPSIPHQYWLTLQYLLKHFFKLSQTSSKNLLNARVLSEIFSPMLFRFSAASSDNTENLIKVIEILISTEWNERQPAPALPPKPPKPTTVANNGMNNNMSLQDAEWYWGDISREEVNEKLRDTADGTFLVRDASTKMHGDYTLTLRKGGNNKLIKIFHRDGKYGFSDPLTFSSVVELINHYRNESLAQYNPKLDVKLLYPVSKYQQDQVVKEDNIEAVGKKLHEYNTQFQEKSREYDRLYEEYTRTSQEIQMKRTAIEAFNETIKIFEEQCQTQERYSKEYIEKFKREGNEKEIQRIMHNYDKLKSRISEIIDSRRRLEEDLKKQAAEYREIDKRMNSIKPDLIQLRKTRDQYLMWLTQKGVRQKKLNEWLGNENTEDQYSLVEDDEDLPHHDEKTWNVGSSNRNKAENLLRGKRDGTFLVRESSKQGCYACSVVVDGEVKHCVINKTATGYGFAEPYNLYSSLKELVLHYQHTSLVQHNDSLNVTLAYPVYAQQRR
Sequence of Phosphatidylinositol 3-kinase regulatory subunit alpha/4,5-bisphosphate 3-kinase catalytic subunit alpha isoform (P42336 whole entry, canonical isoform): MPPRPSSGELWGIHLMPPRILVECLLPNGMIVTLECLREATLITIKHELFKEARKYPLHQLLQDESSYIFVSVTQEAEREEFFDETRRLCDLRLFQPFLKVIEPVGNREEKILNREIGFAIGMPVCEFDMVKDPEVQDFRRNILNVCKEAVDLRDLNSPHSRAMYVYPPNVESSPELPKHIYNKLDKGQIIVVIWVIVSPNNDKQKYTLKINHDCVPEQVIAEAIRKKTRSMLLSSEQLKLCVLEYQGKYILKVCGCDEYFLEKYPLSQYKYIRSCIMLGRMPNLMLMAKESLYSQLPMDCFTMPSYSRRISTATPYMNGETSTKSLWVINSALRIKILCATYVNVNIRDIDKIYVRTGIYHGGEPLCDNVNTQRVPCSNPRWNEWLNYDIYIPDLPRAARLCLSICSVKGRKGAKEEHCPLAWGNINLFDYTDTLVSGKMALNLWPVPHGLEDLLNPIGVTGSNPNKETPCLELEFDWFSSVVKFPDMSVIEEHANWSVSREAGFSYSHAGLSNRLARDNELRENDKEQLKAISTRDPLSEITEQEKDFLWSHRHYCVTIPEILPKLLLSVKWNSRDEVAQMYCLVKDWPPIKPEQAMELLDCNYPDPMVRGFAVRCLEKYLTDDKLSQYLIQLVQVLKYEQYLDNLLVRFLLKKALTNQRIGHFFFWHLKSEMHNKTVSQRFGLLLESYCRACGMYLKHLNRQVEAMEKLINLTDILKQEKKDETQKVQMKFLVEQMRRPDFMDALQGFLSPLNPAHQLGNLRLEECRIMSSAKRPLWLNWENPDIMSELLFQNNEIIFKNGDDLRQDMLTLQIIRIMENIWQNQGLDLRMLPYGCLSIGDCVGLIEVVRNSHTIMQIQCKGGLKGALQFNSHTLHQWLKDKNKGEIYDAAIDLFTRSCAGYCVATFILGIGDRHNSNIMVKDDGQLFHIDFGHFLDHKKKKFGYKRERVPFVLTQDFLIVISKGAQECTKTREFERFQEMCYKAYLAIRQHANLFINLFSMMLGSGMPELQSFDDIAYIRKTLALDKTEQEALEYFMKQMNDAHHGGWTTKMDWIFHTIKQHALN

| Structure (SMILES) | IC50 [nM] | IC50 (pH 7.5, 22 °C) [nM] |
| --- | --- | --- |
| COC[C@H]1OC(=O)c2coc3c2[C@@]1(C)C1=C(C3=O)C2CC[C@H](O)[C@@]2(C)C[C@H]1OC(C)=O (stereo partly drawn) [(1R,3R,5S,6S,18S)-6-hydroxy-18-(methoxymethyl)-1,5-dimethyl-11,16-dioxo-13,17-dioxapentacyclo[10.6.1.0^{2,10}.0^{5,9}.0^{15,19}]nonadeca-2(10),12(19),14-trien-3-yl acetate] |  | 2.7 |
| COC[C@H]1OC(=O)C(=CN2CCN(CCCN(C)C)CC2)C2C(=O)C(=O)C3=C([C@H](OC(C)=O)C[C@@]4(C)C3CC[C@@H]4O)[C@]21C (stereo partly drawn) [(2R,3S,6E,14S,15S,17R)-6-({4-[3-(dimethylamino)propyl]piperazin-1-yl}methylidene)-8,14-dihydroxy-3-(methoxymethyl)-2,15-dimethyl-5,9-dioxo-4-oxatetracyclo[8.7.0.0^{2,7}.0^{11,15}]heptadeca-1(10),7-dien-17-yl acetate] | 38 |  |
| COC[C@H]1OC(=O)C(=CN(C)CCN(C)C)C2C(=O)C(=O)C3=C([C@H](OC(C)=O)C[C@@]4(C)C3CC[C@@H]4O)[C@]21C (stereo partly drawn) [(2R,3S,6E,14S,15S,17R)-6-({[2-(dimethylamino)ethyl](methyl)amino}methylidene)-8,14-dihydroxy-3-(methoxymethyl)-2,15-dimethyl-5,9-dioxo-4-oxatetracyclo[8.7.0.0^{2,7}.0^{11,15}]heptadeca-1(10),7-dien-17-yl acetate] | 8.4 |  |

More lines, in order of falling IC50, values ahead:

| IC50 [nM] | Structure (SMILES) | IC50 (pH 7.5, 22 °C) [nM] |
| --- | --- | --- |
| 193 | COC[C@H]1OC(=O)C(=CN(C)CCCC(=O)O)C2C(=O)C(=O)C3=C([C@H](OC(C)=O)C[C@@]4(C)C3CC[C@@H]4O)[C@]21C (stereo partly drawn) [4-({[(2R,3S,6E,14S,15S,17R)-17-(acetyloxy)-8,14-dihydroxy-3-(methoxymethyl)-2,15-dimethyl-5,9-dioxo-4-oxatetracyclo[8.7.0.0^{2,7}.0^{11,15}]heptadeca-1(10),7-dien-6-ylidene]methyl}(methyl)amino)butanoic acid] |  |
| 50 | CCN(CC)CCN(C)C=C1C(=O)O[C@H](COC)[C@]2(C)C3=C(C(=O)C(=O)C12)C1CC[C@H](O)[C@@]1(C)C[C@H]3OC(C)=O (stereo partly drawn) [(2R,3S,6E,14S,15S,17R)-6-({[2-(diethylamino)ethyl](methyl)amino}methylidene)-8,14-dihydroxy-3-(methoxymethyl)-2,15-dimethyl-5,9-dioxo-4-oxatetracyclo[8.7.0.0^{2,7}.0^{11,15}]heptadeca-1(10),7-dien-17-yl acetate] |  |
| 33 | COC[C@H]1OC(=O)C(=CN2CCC(C(=O)O)CC2)C2C(=O)C(=O)C3=C([C@H](OC(C)=O)C[C@@]4(C)C3CC[C@@H]4O)[C@]21C (stereo partly drawn) [1-{[(2R,3S,6E,14S,15S,17R)-17-(acetyloxy)-8,14-dihydroxy-3-(methoxymethyl)-2,15-dimethyl-5,9-dioxo-4-oxatetracyclo[8.7.0.0^{2,7}.0^{11,15}]heptadeca-1(10),7-dien-6-ylidene]methyl}piperidine-4-carboxylic acid] |  |
| 24 | CCN(C=C1C(=O)O[C@H](COC)[C@]2(C)C3=C(C(=O)C(=O)C12)C1CC[C@H](O)[C@@]1(C)C[C@H]3OC(C)=O)CCN(CC)CC (stereo partly drawn) [(2R,3S,6E,14S,15S,17R)-6-({[2-(diethylamino)ethyl](ethyl)amino}methylidene)-8,14-dihydroxy-3-(methoxymethyl)-2,15-dimethyl-5,9-dioxo-4-oxatetracyclo[8.7.0.0^{2,7}.0^{11,15}]heptadeca-1(10),7-dien-17-yl acetate] |  |
| 5 | CCN(C=C1C(=O)O[C@H](COC)[C@]2(C)C3=C(C(=O)C(=O)C12)C1CC[C@H](O)[C@@]1(C)C[C@H]3OC(C)=O)CCN(C)C (stereo partly drawn) [(2R,3S,6E,14S,15S,17R)-6-({[2-(dimethylamino)ethyl](ethyl)amino}methylidene)-8,14-dihydroxy-3-(methoxymethyl)-2,15-dimethyl-5,9-dioxo-4-oxatetracyclo[8.7.0.0^{2,7}.0^{11,15}]heptadeca-1(10),7-dien-17-yl acetate] |  |
